Data on 28 compounds can be found in US10807986B2, “Fused pyrimidine compound or salt thereof” (TAIHO PHARMACEUTICAL CO., LTD., priority 2016, dated 2020).

A short description of the series: Evaluation of stability in liver microsome. To be noted: mouse liver microsome 0.25 mg/mL, test compound 1 μM, 37° C., 30 minutes. A general note: Microsomes from liver hold many membrane-bound enzymes, among them those of drug oxidation.
Protocol: Solutions of the test compounds in DMSO/acetonitrile (the final concentration of each test compound was 1 μM, the final concentration of DMSO was 0.01%, and the final concentration of acetonitrile was 1%) were individually added to a liver microsome mixture solution (mouse liver microsome with a final concentration of 0.25 mg/mL, a potassium phosphate buffer with a final concentration of 100 mM, and magnesium chloride with a final concentration of 3 mM), and each mixture was pre-incubated at 37° C. for 5 minutes. […] After incubation at 37° C. for 30 minutes, a double amount of ethanol was added thereto to terminate the reaction, thereby obtaining post-reaction samples. A double amount of ethanol was added to each of the remaining mixture solutions, and a NADPH-generating system was further added thereto, thereby obtaining pre-reaction samples. The pre-reaction samples and post-reaction samples were centrifuged at 2000×g, and their supernatant was filtered through a glass filter. Each filtrate was then introduced into LC-MS/MS, and MS/MS peaks of the test compounds were detected. From the ratio of the post-reaction MS/MS peak to the pre-reaction MS/MS peak of the test compounds, the percentage of the remaining test compounds (remaining %) was calculated.
With `COCc1ccc(NC(=O)c2c(OC[C@@H]3CCCO3)n(C3(C)CC3)c3ncnc(N)c23)cc1` [Example 97, (S)-4-amino-N-(4-(methoxymethyl)phenyl)-7-(1-methylcyclopropyl)-6-((tetrahydrofuran-2-yl)methoxy)-7H-pyrrolo[2,3-d]pyrimidine-5-carboxamide], the “Remaining (%)” value is reported as 70%. As for `COCc1ccc(NC(=O)c2c(OCC(C)C)n(C3(C)CC3)c3ncnc(N)c23)cc1` [Example 99, 4-amino-6-isobutoxy-N-(4-(methoxymethyl)phenyl)-7-(1-methylcyclopropyl)-7H-pyrrolo[2,3-d]pyrimidine-5-carboxamide], the “Remaining (%)” value stood at 51%. For `COCc1ccc(NC(=O)c2c(OCC(C)OC)n(C3(C)CC3)c3ncnc(N)c23)cc1` (stereo not shown) [Example 100, 4-amino-N-(4-(methoxymethyl)phenyl)-6-(2-methoxypropoxy)-7-(1-methylcyclopropyl)-7H-pyrrolo[2,3-d]pyrimidine-5-carboxamide], the “Remaining (%)” value is 76%. In the case of `COCc1ccc(NC(=O)c2c(OCC3CCOC3)n(C3(C)CC3)c3ncnc(N)c23)cc1` (stereo not shown) [Example 101, 4-amino-N-(4-(methoxymethyl)phenyl)-7-(1-methylcyclopropyl)-6-((tetrahydrofuran-3-yl)methoxy)-7H-pyrrolo[2,3-d]pyrimidine-5-carboxamide], the “Remaining (%)” value is reported as 68%. For the compound `COCc1ccc(NC(=O)c2c(OCC3CCCCO3)n(C3(C)CC3)c3ncnc(N)c23)cc1` (stereo not shown) [Example 102, 4-amino-N-(4-(methoxymethyl)phenyl)-7-(1-methylcyclopropyl)-6-((tetrahydro-2H-pyran-2-yl)methoxy)-7H-pyrrolo[2,3-d]pyrimidine-5-carboxamide], the “Remaining (%)” value stood at 60%.

As for `COCc1ccc(NC(=O)c2c(C#CCC3(O)CCC3)n(C3(C)CC3)c3ncnc(N)c23)cc1` [Example 103, 4-amino-6-(3-(1-hydroxycyclobutyl)prop-1-yn-1-yl)-N-(4-(methoxymethyl)phenyl)-7-(1-methylcyclopropyl)-7H-pyrrolo[2,3-d]pyrimidine-5-carboxamide], the “Remaining (%)” value was determined as 60%.

In the case of `COCc1ccc(NC(=O)c2c(C#CC(O)C3CC3)n(C3(C)CC3)c3ncnc(N)c23)cc1` (stereo not shown) [Example 104, 4-amino-6-(3-cyclopropyl-3-hydroxyprop-1-yn-1-yl)-N-(4-(methoxymethyl)phenyl)-7-(1-methylcyclopropyl)-7H-pyrrolo[2,3-d]pyrimidine-5-carboxamide], the “Remaining (%)” value was determined as 52%.

In the case of `COCc1ccc(NC(=O)c2c(C#CCN3CCCCC3)n(C3(C)CC3)c3ncnc(N)c23)cc1` [Example 105, 4-amino-N-[4-(methoxymethyl)phenyl]-7-(1-methylcyclopropyl)-6-(3-(piperidin-1-yl)prop-1-yn-1-yl)-7H-pyrrolo[2,3-d]pyrimidine-5-carboxamide], the “Remaining (%)” value is reported as 52%. `COCc1ccc(NC(=O)c2c(/C=C/CO)n(C3(C)CC3)c3ncnc(N)c23)cc1` [Example 109, (E)-4-amino-6-(3-hydroxyprop-1-en-1-yl)-N-(4-(methoxymethyl)phenyl)-7-(1-methylcyclopropyl)-7H-pyrrolo[2,3-d]pyrimidine-5-carboxamide]: the “Remaining (%)” value turned out to be 68%. Regarding `COCc1ccc(NC(=O)c2c(C#Cc3ccccc3OC)n(C3(C)CC3)c3ncnc(N)c23)cc1` [Example 113, 4-amino-N-(4-(methoxymethyl)phenyl)-6-((2-methoxyphenyl)ethynyl)-7-(1-methylcyclopropyl)-7H-pyrrolo[2,3-d]pyrimidine-5-carboxamide], the “Remaining (%)” value is reported as 79%. Turning to `CCn1nccc1C#Cc1c(C(=O)Nc2ccc(COC)cc2)c2c(N)ncnc2n1C1(C)CC1` [Example 114, 4-amino-6-((1-ethyl-1H-pyrazol-5-yl)ethynyl)-N-(4-(methoxymethyl)phenyl)-7-(1-methylcyclopropyl)-7H-pyrrolo[2,3-d]pyrimidine-5-carboxamide], the “Remaining (%)” value was 55%. The figure for `CCOc1c(C(=O)Nc2ccc(-c3ccco3)cc2)c2c(N)ncnc2n1C1(C)CC1` [Example 116, 4-amino-6-ethoxy-N-(4-(furan-2-yl)phenyl)-7-(1-methylcyclopropyl)-7H-pyrrolo[2,3-d]pyrimidine-5-carboxamide] is 55%; for `CCn1cc(C#Cc2c(C(=O)Nc3ccc(COC)cc3)c3c(N)ncnc3n2C2(C)CC2)cn1` [Example 118, 4-amino-6-((1-ethyl-1H-pyrazol-4-yl)ethynyl)-N-(4-(methoxymethyl)phenyl)-7-(1-methylcyclopropyl)-7H-pyrrolo[2,3-d]pyrimidine-5-carboxamide] it is 73%; for `COCc1ccc(NC(=O)c2c(C#Cc3cccs3)n(C3(C)CC3)c3ncnc(N)c23)cc1` [Example 119, 4-amino-N-(4-(methoxymethyl)phenyl)-7-(1-methylcyclopropyl)-6-(thiophen-2-ylethynyl)-7H-pyrrolo[2,3-d]pyrimidine-5-carboxamide] it is 70%.

Turning to `COCc1ccc(NC(=O)c2c(C#Cc3ccc(Cl)nc3)n(C3(C)CC3)c3ncnc(N)c23)cc1` [Example 120, 4-amino-6-((6-chloropyridin-3-yl)ethynyl)-N-(4-(methoxymethyl)phenyl)-7-(1-methylcyclopropyl)-7H-pyrrolo[2,3-d]pyrimidine-5-carboxamide], the “Remaining (%)” value was found to be 72%. Next, `COCc1ccc(NC(=O)c2c(C#Cc3c[nH]c4ccccc34)n(C3(C)CC3)c3ncnc(N)c23)cc1` [Example 121, 6-((1H-indol-3-yl)ethynyl)-4-amino-N-(4-(methoxymethyl)phenyl)-7-(1-methylcyclopropyl)-7H-pyrrolo[2,3-d]pyrimidine-5-carboxamide]: 74%. Turning to `COCc1ccc(NC(=O)c2c(C#Cc3cccc(NCc4ccncc4)c3)n(C3(C)CC3)c3ncnc(N)c23)cc1` [Example 122, 4-amino-N-(4-(methoxymethyl)phenyl)-7-(1-methylcyclopropyl)-6-((3-((pyridin-4-ylmethyl)amino)phenyl)ethynyl)-7H-pyrrolo[2,3-d]pyrimidine-5-carboxamide], the “Remaining (%)” value amounted to 62%. The figure for `COCc1ccc(NC(=O)c2c(C#CCC3(O)COC3)n(C3(C)CC3)c3ncnc(N)c23)cc1` [Example 125, 4-amino-6-(3-(3-hydroxyoxetan-3-yl)prop-1-yn-1-yl)-N-(4-(methoxymethyl)phenyl)-7-(1-methylcyclopropyl)-7H-pyrrolo[2,3-d]pyrimidine-5-carboxamide] is 74%.

In the case of `COCc1ccc(NC(=O)c2c(C#Cc3csc(C)n3)n(C3(C)CC3)c3ncnc(N)c23)cc1` [Example 126, 4-amino-N-(4-(methoxymethyl)phenyl)-7-(1-methylcyclopropyl)-6-((2-methylthiazol-4-yl)ethynyl)-7H-pyrrolo[2,3-d]pyrimidine-5-carboxamide], the “Remaining (%)” value is on record as 69%. For the compound `CCOc1c(C(=O)Nc2ccc(COC)cc2)c2c(N)ncnc2n1C1(C)CC1` [Example 127, 4-amino-6-ethoxy-N-(4-(methoxymethyl)phenyl)-7-(1-methylcyclopropyl)-7H-pyrrolo[2,3-d]pyrimidine-5-carboxamide], the “Remaining (%)” value amounted to 70%.

For the compound `COCc1ccc(NC(=O)c2c(C#Cc3cnc4[nH]ccc4c3)n(C3(C)CC3)c3ncnc(N)c23)cc1` [Example 128, 6-((1H-pyrrolo[2,3-b]pyridin-5-yl)ethynyl)-4-amino-N-(4-(methoxymethyl)phenyl)-7-(1-methylcyclopropyl)-7H-pyrrolo[2,3-d]pyrimidine-5-carboxamide], the “Remaining (%)” value was 82%. With `COCc1ccc(NC(=O)c2c(C#Cc3ccn[nH]3)n(C3(C)CC3)c3ncnc(N)c23)cc1` [Example 129, 6-((1H-pyrazol-5-yl)ethynyl)-4-amino-N-(4-(methoxymethyl)phenyl)-7-(1-methylcyclopropyl)-7H-pyrrolo[2,3-d]pyrimidine-5-carboxamide], the “Remaining (%)” value came to 54%. The figure for `COCc1ccc(NC(=O)c2c(C#Cc3cccc(F)c3)n(C3(C)CC3)c3ncnc(N)c23)cc1` [Example 130, 4-amino-6-((3-fluorophenyl)ethynyl)-N-(4-(methoxymethyl)phenyl)-7-(1-methylcyclopropyl)-7H-pyrrolo[2,3-d]pyrimidine-5-carboxamide] is 84%; for `COCc1ccc(NC(=O)c2c(C#CC3(O)CCCC3)n(C3(C)CC3)c3ncnc(N)c23)cc1` [Example 131, 4-amino-6-((1-hydroxycyclopentyl)ethynyl)-N-(4-(methoxymethyl)phenyl)-7-(1-methylcyclopropyl)-7H-pyrrolo[2,3-d]pyrimidine-5-carboxamide] it is 55%. As to `COCc1ccc(NC(=O)c2c(C#CCN3CCN(C)CC3)n(C3(C)CC3)c3ncnc(N)c23)cc1` [Example 132, 4-amino-N-(4-(methoxymethyl)phenyl)-7-(1-methylcyclopropyl)-6-(3-(4-methylpiperazin-1-yl)prop-1-yn-1-yl)-7H-pyrrolo[2,3-d]pyrimidine-5-carboxamide], the “Remaining (%)” value is listed as 77%.

As to `COCc1ccc(NC(=O)c2c(C#CC(C)(C)N)n(C3(C)CC3)c3ncnc(N)c23)cc1` [Example 134, 4-amino-6-(3-amino-3-methylbut-1-yn-1-yl)-N-(4-(methoxymethyl)phenyl)-7-(1-methylcyclopropyl)-7H-pyrrolo[2,3-d]pyrimidine-5-carboxamide], the “Remaining (%)” value is 79%.

In the case of `COCc1ccc(NC(=O)c2c(OCC3CCCO3)n(C3(C)CC3)c3ncnc(N)c23)cc1` (stereo not shown) [Example 135, 4-amino-N-(4-(methoxymethyl)phenyl)-7-(1-methylcyclopropyl)-6-((tetrahydrofuran-2-yl)methoxy)-7H-pyrrolo[2,3-d]pyrimidine-5-carboxamide], the “Remaining (%)” value was 67%. In the case of `COCc1ccc(NC(=O)c2c(OCCN3CCCC3=O)n(C3(C)CC3)c3ncnc(N)c23)cc1` [Example 136, 4-amino-N-(4-(methoxymethyl)phenyl)-7-(1-methylcyclopropyl)-6-(2-(2-oxopyrrolidin-1-yl)ethoxy)-7H-pyrrolo[2,3-d]pyrimidine-5-carboxamide], the “Remaining (%)” value was 78%.
